Results on 4 compounds are retold here after patent US5405849A, “Angiotensin II receptor blocking 2,3,6 substituted quinazolinones” (American Cyanamid Company, priority 1993, dated 1995).

Experiment [1] concerns angiotensin II (AII) vasopressor response. Description: AII challenge: antagonism of the vasopressor response of angiotensin II in conscious Okamoto-Aoki SHR. The experiment is classed as in vivo, rat (Okamoto-Aoki SHR). Conditions: for inhibition in vivo at 30 mg/kg / inhibition in vivo at 3 mg/kg / inhibition in vivo at 10 mg/kg / inhibition in vivo at 6 mg/kg / inhibition in vivo at 1 mg/kg / inhibition in vivo at 2 mg/kg: Rattus norvegicus, iv; for inhibition in vivo at 3 mg/kg: 3 mg/kg iv. The source says:
Conscious Male Okamoto-Aoki SHR, 16-20 weeks old, weighing approximately 330 g are purchased from Charles River Labs (Wilmington, Mass.). Conscious rats are restrained in a supine position with elastic tape. The area at the base of the tail is locally anesthetized by subcutaneous infiltration with 2% procaine. The ventral caudal artery and vein are isolated, and a cannula made of polyethylene (PE) 10-20 tubing (fused together by heat) is passed into the lower abdominal aorta and vena cava, respectively. The cannula is secured, heparinized (1,000 I.U./ml), sealed and the wound is closed. The animals are placed in plastic restraining cages in an upright position. The cannula is attached to a Statham P23Db pressure transducer, and pulsatile blood pressure is recorded to 10-15 minutes with a Gould Brush recorder.
Angiotensin II (human sequence, Sigma Chem. Co., St. Louis, Mo.) of 0.05 and 0.1 ug/kg i.v. is injected into all rats (predosing response). Then a test compound, vehicle or a known angiotensin II antagonist is administered i.v., i.p. or orally to each set of rats. […] The vasopressor response of angiotensin II is measured for the increase in systolic blood pressure in mmHg. The percentage of antagonism or blockade of the vasopressor response of angiotensin II by a compound is calculated using the vasopressor response (increase in systolic blood pressure) of angiotensin II of each rat predosing the compound as 100%.

The target of experiment [2] is angiotensin II receptors. The experiment can be described thus: Angiotensin II receptor binding (displacement of 3H-angiotensin II), rat adrenocortical microsomes. Particulars: 2 nM 3H-angiotensin II. The procedure:
The source of the angiotensin II receptors utilized in the screen is from rat adrenocortical microsomes. The cortices are placed in ice cold sucrose buffer (0.2 m sucrose, 1 mm EDTA, 10 mm Trizma base, pH 7.4) and homogenized in a chilled ground glass tissue grinder. The homogenate is centrifuged at 3000×g for 10 min. and the resultant supernatant is decanted through cheesecloth and centrifuged at 12,000×g for 3 min. […] Binding assays are performed by incubating aliquots of freshly prepared microsomes in the absence or presence of compound (40 uM final concentration). Ten minutes later, ^3 H-angiotensin II is added to each tube (2 nM final concentration) and incubated for 60 minutes at […]. The reaction is terminated by the addition of 3 ml of cold assay buffer without albumin and the bound and free radioactivity is separated rapidly through glass-fiber filters prewetted with assay buffer. After two additional 3 ml rinses, the filters are placed in scintillation fluid and counted in a scintillation counter to determine trapped radioactivity.

[3] abbreviates: 0.5 h, 30 mg/kg iv, AII .05 ug/kg, 30 min.
The mark [4] stands for this setting: 0.5 h, 30 mg/kg iv, AII .1 ug/kg, 30 min.
Where [5] appears, read: 1.5 h, 30 mg/kg iv, AII .05 ug/kg, 90 min.
Where [6] appears, read: 1.5 h, 30 mg/kg iv, AII .1 ug/kg, 90 min.
Setting [7] is: 2.5 h, 30 mg/kg iv, AII .05 ug/kg, 150 min.
Setting [8] is: 2.5 h, 30 mg/kg iv, AII .1 ug/kg, 150 min.
Where [9] appears, read: 1.5 h, 10 mg/kg iv, AII .05 ug/kg, 90 min.

Take `CCCCc1nc2ccc(C(CC)OC)cc2c(=O)n1Cc1ccc(-c2ccccc2-c2nnn[nH]2)cc1` (stereo not shown) [Example 55, 2-Butyl-6-(1-methoxypropyl)-3-[[2'-(1H-tetrazol-5-yl) [1,1'-biphenyl]-4-yl]methyl]-4(3H) -quinazolinone]: the “Response change (systolic BP increase to AII)” value in experiment [1] (30 mg/kg iv, AII .05 ug/kg, 30 min) is recorded as 10 mmHg; in experiment [1] (30 mg/kg iv, AII .05 ug/kg, 90 min), 15 mmHg; in experiment [1] (30 mg/kg iv, AII .05 ug/kg, 150 min), 20 mmHg; in experiment [1] (30 mg/kg iv, AII .1 ug/kg, 30 min), 15 mmHg; in experiment [1] (30 mg/kg iv, AII .1 ug/kg, 90 min), 5 mmHg; in experiment [1] (30 mg/kg iv, AII .1 ug/kg, 150 min), 5 mmHg. The inhibition in vivo at 30 mg/kg came out at 82% in experiment [1] (setting [3]); 73% in experiment [1] (setting [4]); 73% in experiment [1] (setting [5]); 91% in experiment [1] (setting [6]); 64% in experiment [1] (setting [7]); 91% in experiment [1] (setting [8]). The compound further registered an IC50 in experiment [2] of 5 nM.

As for `CCCCc1nc2ccc(CO)cc2c(=O)n1Cc1ccc(-c2ccccc2-c2nnn[nH]2)cc1` [Example 53], the “Response change (systolic BP increase to AII)” value in experiment [1] (6 mg/kg iv, AII .025 ug/kg, 30 min) is on record as 15 mmHg; in experiment [1] (6 mg/kg iv, AII .025 ug/kg, 90 min) it was 10 mmHg. The inhibition in vivo at 3 mg/kg in experiment [1] (10 min, AII .05 ug/kg) came to 62%; in experiment [1] (10 min, AII .1 ug/kg), 42%; in experiment [1] (0.5 h, AII .025 ug/kg, 30 min) it was 53%; in experiment [1] (1 h, AII .05 ug/kg, 60 min), 30%; in experiment [1] (1 h, AII .1 ug/kg, 60 min) it was 13%; in experiment [1] (1.5 h, AII .025 ug/kg, 90 min), 47%. For the same compound, at 3 mg/kg the inhibition in vivo in experiment [1] (1.5 h, AII .1 ug/kg, 90 min) was 13%. Moreover, the inhibition in vivo at 10 mg/kg in experiment [1] (10 min, 10 mg/kg iv, AII .05 ug/kg) was determined as 83%; in experiment [1] (10 min, 10 mg/kg iv, AII .1 ug/kg) it was 90%; in experiment [1] (0.5 h, 10 mg/kg iv, AII .05 ug/kg, 30 min, second 30/60/90 series), 76%; in experiment [1] (0.5 h, 10 mg/kg iv, AII .1 ug/kg, 30 min, second 30/60/90 series) it was 60%; in experiment [1] (1 h, 10 mg/kg iv, AII .05 ug/kg, 60 min, second 30/60/90 series) it was 46%; in experiment [1] (1 h, 10 mg/kg iv, AII .1 ug/kg, 60 min, second 30/60/90 series), 44%. Also, the inhibition in vivo at 10 mg/kg in experiment [1] (setting [9]) came to 41%; in experiment [1] (1.5 h, 10 mg/kg iv, AII .05 ug/kg, 90 min, second 30/60/90 series) it was 35%; in experiment [1] (1.5 h, 10 mg/kg iv, AII .1 ug/kg, 90 min) it was 56%; in experiment [1] (1.5 h, 10 mg/kg iv, AII .1 ug/kg, 90 min, second 30/60/90 series), 26%. Also, the inhibition in vivo at 6 mg/kg was 50% in experiment [1] (0.5 h, 6 mg/kg iv, AII .025 ug/kg, 30 min) and 30% in experiment [1] (1.5 h, 6 mg/kg iv, AII .1 ug/kg, 90 min).

Turning to `CCCCc1nc2ccc(C(C)O)cc2c(=O)n1Cc1ccc(-c2ccccc2-c2nnn[nH]2)cc1` (stereo not shown) [Example 49, 2-Butyl-6-(1-hydroxyethyl)-3-[[2'-(1H-tetrazol-5-yl)-[1,1'-biphenyl]-4-yl]methyl]-4(3H)-quinazolinone], the “Response change (systolic BP increase to AII)” value in experiment [1] (1 mg/kg iv, AII .05 ug/kg, 30 min) stood at 27 mmHg; in experiment [1] (1 mg/kg iv, AII .05 ug/kg, 45 min), 25 mmHg; in experiment [1] (1 mg/kg iv, AII .05 ug/kg, 90 min), 40 mmHg; in experiment [1] (1 mg/kg iv, AII .1 ug/kg, 30 min) it was 40 mmHg; in experiment [1] (1 mg/kg iv, AII .1 ug/kg, 45 min), 25 mmHg; in experiment [1] (1 mg/kg iv, AII .1 ug/kg, 90 min), 40 mmHg. Also, the “Response change (systolic BP increase to AII)” value was found to be 10 mmHg in experiment [1] (2 mg/kg iv, AII .05 ug/kg, 120 min); 35 mmHg in experiment [1] (2 mg/kg iv, AII .05 ug/kg, 150 min); 50 mmHg in experiment [1] (2 mg/kg iv, AII .05 ug/kg, 180 min); 35 mmHg in experiment [1] (2 mg/kg iv, AII .1 ug/kg, 120 min); 40 mmHg in experiment [1] (2 mg/kg iv, AII .1 ug/kg, 150 min); 55 mmHg in experiment [1] (2 mg/kg iv, AII .1 ug/kg, 180 min). Moreover, the “Response change (systolic BP increase to AII)” value was found to be 0 mmHg in experiment [1] (10 mg/kg iv, AII .05 ug/kg, 30 min); 0 mmHg in experiment [1] (10 mg/kg iv, AII .05 ug/kg, 90 min); 0 mmHg in experiment [1] (10 mg/kg iv, AII .1 ug/kg, 30 min). The inhibition in vivo at 1 mg/kg in experiment [1] (0.5 h, 1 mg/kg iv, AII .05 ug/kg, 30 min) is 40%; in experiment [1] (0.5 h, 1 mg/kg iv, AII .1 ug/kg, 30 min), 27%; in experiment [1] (0.75 h, 1 mg/kg iv, AII .05 ug/kg, 45 min), 45%; in experiment [1] (0.75 h, 1 mg/kg iv, AII .1 ug/kg, 45 min), 55%; in experiment [1] (1.5 h, 1 mg/kg iv, AII .05 ug/kg, 90 min) it was 11%; in experiment [1] (1.5 h, 1 mg/kg iv, AII .1 ug/kg, 90 min), 27%. The inhibition in vivo at 10 mg/kg in experiment [1] (0.5 h, 10 mg/kg iv, AII .05 ug/kg, 30 min) was 100%; in experiment [1] (0.5 h, 10 mg/kg iv, AII .1 ug/kg, 30 min), 100%; in experiment [1] (setting [9]), 100%. Further, the inhibition in vivo at 2 mg/kg turned out to be 78% in experiment [1] (2 h, 2 mg/kg iv, AII .05 ug/kg, 120 min); 36% in experiment [1] (2 h, 2 mg/kg iv, AII .1 ug/kg, 120 min); 23% in experiment [1] (2.5 h, 2 mg/kg iv, AII .05 ug/kg, 150 min); 27% in experiment [1] (2.5 h, 2 mg/kg iv, AII .1 ug/kg, 150 min); 11% in experiment [1] (3 h, 2 mg/kg iv, AII .05 ug/kg, 180 min); 0% in experiment [1] (3 h, 2 mg/kg iv, AII .1 ug/kg, 180 min).

Regarding `CCCCc1nc2ccc(C(C)OC(C)=O)cc2c(=O)n1Cc1ccc(-c2ccccc2-c2nnn[nH]2)cc1` (stereo not shown) [Example 58, 6-[1-(Acetyloxy)ethyl]-2-butyl-3-[[2'-(1H-tetrazol-5-yl)[1,1'-biphenyl]-4-yl]methyl]-4(3H) -quinazolinone], the inhibition in vivo at 30 mg/kg turned out to be 87% in experiment [1] (setting [3]); 98% in experiment [1] (setting [4]); 85% in experiment [1] (setting [5]); 95% in experiment [1] (setting [6]); 85% in experiment [1] (setting [7]); 81% in experiment [1] (setting [8]).
